Reference: PubChem BioAssay (NCI)
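All cell lines were grown in 96-well plates and treated with compound for 48 hours. GI50 = concentration required for 50% inhibition of growth. At the TGI there is no net growth.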

Legend:
Assay in all cases: NCI-60 cell line screen, 48 h
COLO 205 colon = tested on: COLO 205 colon
OVCAR-3 ovarian = tested on: OVCAR-3 ovarian
SK-MEL-5 melanoma = tested on: SK-MEL-5 melanoma
TK-10 renal = tested on: TK-10 renal
SK-MEL-28 melanoma = tested on: SK-MEL-28 melanoma
CAKI-1 renal = tested on: CAKI-1 renal
A549 NSCLC = tested on: A549 NSCLC
HS 578T breast = tested on: HS 578T breast
IGROV1 ovarian = tested on: IGROV1 ovarian
MOLT-4 leukemia = tested on: MOLT-4 leukemia

| SMILES | TGI (COLO 205 colon) | TGI (OVCAR-3 ovarian) | TGI (SK-MEL-5 melanoma) | TGI (TK-10 renal) | TGI (SK-MEL-28 melanoma) | TGI (CAKI-1 renal) | TGI (A549 NSCLC) | TGI (HS 578T breast) | TGI (IGROV1 ovarian) | TGI (MOLT-4 leukemia) | GI50 (COLO 205 colon) | GI50 (OVCAR-3 ovarian) | GI50 (SK-MEL-5 melanoma) | GI50 (TK-10 renal) | GI50 (SK-MEL-28 melanoma) | GI50 (CAKI-1 renal) | GI50 (A549 NSCLC) | GI50 (HS 578T breast) | GI50 (IGROV1 ovarian) | GI50 (MOLT-4 leukemia) |
| --- | --- | --- | --- | --- | --- | --- | --- | --- | --- | --- | --- | --- | --- | --- | --- | --- | --- | --- | --- | --- |
| Cc1ccc(C(=O)Nc2ccc(CP(=O)(O)O)cc2)cc1NC(=O)c1cccc(N)c1 | > 100 µM | > 100 µM | > 100 µM | > 100 µM | > 100 µM | > 100 µM | > 100 µM | > 100 µM | > 100 µM | > 100 µM |  |  |  |  |  |  |  |  |  |  |
| COc1ccc2c3c(Nc4cccc(/C(C)=N\O)c4)[nH]c4ccccc4c-3c(N=O)c2c1 | 57.1 µM | 88.2 µM | > 100 µM | > 100 µM | 42.7 µM | 54.8 µM | > 100 µM | > 100 µM | 84.5 µM | 62.2 µM | 21.3 µM | 33.2 µM | 29.8 µM | 80.3 µM | 12.7 µM | 29.3 µM | 27.6 µM | 94.8 µM | 26.1 µM | 7 µM |
| O=C1C=CC2OC(c3ccccc3)C(O)C2O1 (centres undefined) | 11 µM | 10.7 µM | 17.1 µM |  | 11.8 µM | 13 µM | 14.5 µM |  | 29.1 µM | 4.41 µM |  |  |  |  |  |  |  |  |  |  |
| O=C(Nc1ccc(Cl)cc1C(F)(F)F)C(=O)C1CCCS1(=O)=O (centres undefined) | > 100 µM | > 100 µM | > 100 µM | > 100 µM | > 100 µM | > 100 µM | > 100 µM |  | > 10 µM | > 100 µM |  |  |  |  |  |  |  |  |  |  |
| CCOC(=O)CC1COc2ccc3c(c21)OCO3 (centres undefined) | > 100 µM | > 100 µM | > 100 µM | > 100 µM | > 100 µM |  | > 100 µM |  | > 100 µM | > 100 µM |  |  |  |  |  |  |  |  |  |  |
| O=c1c2ccccc2[nH]n1Cc1ccccc1 | > 100 µM | > 100 µM | > 100 µM | > 100 µM | > 100 µM | > 100 µM | > 100 µM | > 100 µM | > 100 µM | > 100 µM |  |  |  |  |  |  |  |  |  |  |
| COc1cc(OC)cc(-c2ccc(-c3ccc(C(=N)N)cn3)o2)c1 | 3.27 µM | 3.46 µM | 2.97 µM | 3.26 µM | 3.16 µM |  | 3.52 µM | 3.58 µM | 3.38 µM | 3.59 µM | 1.62 µM | 1.89 µM | 1.6 µM | 1.79 µM | 1.65 µM |  | 1.86 µM | 1.66 µM | 1.81 µM | 1.74 µM |
| O=C1c2ccccc2C(=O)N1CCSCC(CO)SCCN1C(=O)c2ccccc2C1=O (centres undefined) | > 100 µM |  | > 100 µM | > 100 µM | > 100 µM | > 100 µM | > 100 µM | > 100 µM | > 100 µM | > 100 µM |  |  |  |  |  |  |  |  |  |  |
| Oc1ccc([C@H]2c3c(O)cc(O)cc3C3c4c(cc(O)cc4[C@@H]2[C@H]2c4cc(O)cc5c4C(c4cc(O)cc(O)c4[C@@H]2c2ccc(O)cc2)[C@@H](c2ccc(O)cc2)O5)O[C@@H]3c2ccc(O)cc2)cc1 (some centres undefined) | 8.15 µM | > 100 µM | > 100 µM | > 100 µM | 0.972 µM | > 100 µM | > 100 µM | > 100 µM | > 100 µM | > 100 µM |  |  |  |  |  |  |  |  |  |  |
| Cc1cccc(Br)[n+]1[O-] | > 100 µM | > 100 µM | > 100 µM | > 100 µM | > 100 µM | > 100 µM | > 100 µM | > 100 µM | > 100 µM | > 100 µM |  |  |  |  |  |  |  |  |  |  |
| CC(CCC[C@H](C)CO)[C@H]1[C@@H](O)C(O)C2[C@@H]3C[C@@H](O)C4(O)C[C@@H](O)CC[C@]4(C)C3CC[C@@]21C (some centres undefined) | > 100 µM | > 100 µM | > 100 µM | > 100 µM | > 100 µM | > 100 µM | > 100 µM |  | > 100 µM | > 100 µM |  |  |  |  |  |  |  |  |  |  |
| CC(=O)OC(CC1(C)C(C)CCC23COC(=O)C2=CCCC31)c1ccoc1 (centres undefined) | > 100 µM | 46.1 µM | 42.1 µM |  | 33 µM |  | > 100 µM |  |  | 90.3 µM |  |  |  |  |  |  |  |  |  |  |
| CCOC(=O)Cn1c2ccccc2c(=O)c2cc(C)c(C)c(C#N)c21 | > 100 µM | > 100 µM |  | > 100 µM | > 100 µM |  | > 100 µM |  | > 100 µM | > 100 µM |  |  |  |  |  |  |  |  |  |  |
| O=C1CSC(c2c[nH]c3ccccc23)N1c1ccc(Cl)cc1 (centres undefined) | > 100 µM | > 100 µM | > 100 µM | > 100 µM | > 100 µM |  | > 100 µM | > 100 µM | > 100 µM | > 100 µM |  |  |  |  |  |  |  |  |  |  |
| CC(CC(N)C(=O)O)C(=O)O (centres undefined) |  | > 100 µM | > 100 µM | > 100 µM | > 100 µM | > 100 µM | > 100 µM | > 100 µM | > 100 µM | > 100 µM |  |  |  |  |  |  |  |  |  |  |
| COC(=O)N1CC(=O)C(C(=O)NC23CC4CC(CC(C4)C2)C3)C1 (centres undefined) | > 100 µM | > 100 µM | > 100 µM | > 100 µM | > 100 µM | > 100 µM | > 100 µM |  | > 100 µM | > 100 µM |  |  |  |  |  |  |  |  |  |  |
| S=C(NCCc1ccccn1)N/N=C/c1ccccn1 | 0.452 µM | > 100 µM | 2.69 µM | > 100 µM | > 100 µM | < 0.01 µM | 7.68 µM | > 100 µM | 0.634 µM |  |  |  |  |  |  |  |  |  |  |  |
| CCc1c2c(cc3c1CC1(C3)Cc3cc4c(c(C(=O)OC)c3C1)CCCC4)CCCC2 (centres undefined) | > 100 µM | > 100 µM | > 100 µM | > 100 µM |  |  | > 100 µM | 46.6 µM | > 100 µM | > 100 µM |  |  |  |  |  |  |  |  |  |  |
| COc1cc(C)c(/C=C2/N=C(c3ccccc3)OC2=O)c([N+](=O)[O-])c1OC | > 100 µM | > 100 µM |  | > 100 µM | > 100 µM | > 100 µM | > 100 µM |  | > 100 µM | > 100 µM |  |  |  |  |  |  |  |  |  |  |
| C=CCNC(=S)N1CC(C)C(=O)Nc2cc(Cl)ccc21 (centres undefined) | > 100 µM |  | > 100 µM | > 100 µM | > 100 µM | > 100 µM | > 100 µM |  | > 100 µM | > 100 µM |  |  |  |  |  |  |  |  |  |  |
